Results as given in patent publication US9927430B2, “Pro-substrates for live cell applications” (PROMEGA CORPORATION, priority 2014, dated 2018).
“Also recorded” adds a separate entry of the source.

Assay: Furimazine release by hydrolysis at different pH, HPLC at 262 nm
Assay type: physicochemical
Protocol: The effect of pH on the hydrolysis of the disclosed compounds may be useful for high-throughput screening (HTS). The percent furimazine released in 1 mM of PBI-5455 solutions with different pH values ranging from 5.9 to 7.6 were detected over time using HPLC at 262 nm. […] These compounds can be used to support HTS operation methods to enhance the initial brightness by adjusting pH or adding an appropriate nucleophile.
As shown in Example 23, PBI-5455 is stable in slightly acidic buffer for 10 hrs. […] For BRET applications to detect protein-protein and/or ligand-protein interactions, if it is a one-time point reading, the concentration in media could be higher than 100-200 μM.

CC(=O)NC(CC(=O)O)C(=O)NC(CC(=O)O)C(=O)NC(CC(=O)O)C(=O)N(C)CCN(CCCN1CCOCC1)C(=O)Oc1c(Cc2ccco2)nc2c(Cc3ccccc3)nc(-c3ccccc3)cn12 (centres unmarked) [PBI-5455, Ac-DDD-MOP-C2-FRZ]
release of furimazine by hydrolysis (1 mM solutions, pH values ranging from 5.9 to 7.6, over time, HPLC at 262 nm (FIG. 14)): pH dependent; also recorded: The higher the pH, the faster the release | stable in buffer (time) (slightly acidic buffer): 10 h
